From publication PMC7862302, “Self-assembling thermostable chimeras as new platform for arsenic biosensing” (Scientific Reports, 2021)

Tests used:
[1] = target: T1, ArsC-Vmh2; type: binding, Thermus thermophilus; conditions: chimera immobilised on gold; 50 mM Tris-HCl pH 7.5, 60 °C, 1 h incubation; detection in 1 M HCl; read-out: KAsIII (converted)
T1 construct: single-chain fusion: TtArsC (N-terminal), 15-residue flexible linker, Vmh2 of Pleurotus ostreatus, thrombin site LVPRGS, C-terminal His-tag; with Hydrophobin Vmh2 (Pleurotus ostreatus)

[2] = target: T2, Vmh2-ArsC; type: binding, Thermus thermophilus; conditions: chimera immobilised on gold; 50 mM Tris-HCl pH 7.5, 60 °C, 1 h incubation; detection in 1 M HCl; read-out: KAsIII (converted)
T2 construct: single-chain fusion: Vmh2 of Pleurotus ostreatus (N-terminal), 15-residue flexible linker, TtArsC, thrombin site LVPRGS, C-terminal His-tag; with Hydrophobin Vmh2 (Pleurotus ostreatus)

Which results are given for `O=[As]O` [As(III)]?
Kd [1]: 1540 µM; Kd [2]: 833 µM
